Experimental data taken from PMC10010340, “The Wnt Pathway Inhibitor RXC004 Blocks Tumor Growth and Reverses Immune Evasion in Wnt Ligand–dependent Cancer Models” (Cancer Research Communications, 2022).
Read-outs that look alike come from different tables or passages of the source.

How the values were obtained:
Porcupine = molecular target: T1, Porcupine (Homo sapiens, UniProt Q9H237); experiment: Wnt palmitoylation assay (GFP-Wnt1-Fc in HEK293T cells); type: cell-based; conditions: 100 nmol/L; GFP-Wnt1-Fc in HEK293T cells with alkyne palmitate
T1 construct: HEK293T cells were transfected with GFP-Wnt1-Fc constructs; endogenous in cells; host or cells: HEK293T
T1 sequence (Q9H237 whole entry): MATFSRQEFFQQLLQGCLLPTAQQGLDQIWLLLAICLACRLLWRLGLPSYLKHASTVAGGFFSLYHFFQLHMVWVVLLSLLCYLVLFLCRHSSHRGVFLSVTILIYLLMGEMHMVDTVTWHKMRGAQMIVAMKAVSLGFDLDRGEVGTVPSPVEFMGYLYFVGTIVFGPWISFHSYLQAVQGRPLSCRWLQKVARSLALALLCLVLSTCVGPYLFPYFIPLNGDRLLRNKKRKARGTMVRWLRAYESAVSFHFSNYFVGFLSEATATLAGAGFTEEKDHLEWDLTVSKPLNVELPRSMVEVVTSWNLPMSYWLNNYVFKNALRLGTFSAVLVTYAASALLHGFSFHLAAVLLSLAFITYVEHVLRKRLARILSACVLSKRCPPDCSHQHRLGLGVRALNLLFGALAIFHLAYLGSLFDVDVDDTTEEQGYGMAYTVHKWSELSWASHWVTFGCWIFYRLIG
Procedure: Palmitoylation of Wnt was performed by the Burris group, under a fee-for-service agreement, and was detected as described in Galli and colleagues ([16]). Briefly, HEK293T cells were transfected with GFP-Wnt1-Fc constructs, followed by overnight incubation with alkyne palmitate (Alk-C16) in the presence of DMSO or 100 nmol/L RXC004. Cells were lysed and A/G agarose beads used to pull down GFP-Wnt1-Fc, which was then subjected to click chemistry to covalently attach biotin azide to any attached alkyne palmitate. Following SDS-PAGE and Western blotting, palmitoylation of Wnt was detected using Streptavidin IR 800 dye. GFP detection served as a transfection and/or loading control.

[1] = Pharmacokinetic/pharmacodynamic analysis in SNU-1411/NOD-SCID mice, 7 days; type: in vivo, mouse (NOD-SCID); conditions: NOD-SCID, mouse, plasma, oral; 20 ng/mL equivalent to 10× IC50; read-out: total plasma concentration equivalent to free IC50
Procedure: (§1) To explore dose–response effects in vivo, SNU-1411 (1 × 10^7 cells) were implanted into NOD-SCID mice subcutaneously at Axis Bioservices. Animals were randomized into the indicated groups and oral dosing of RXC004 was initiated when tumors reached approximately 200 mm^3. Tumor volume measurements were taken at day 19, n ≥9 per group. Pharmacokinetic/pharmacodynamic analysis in SNU1411/NOD-SCID mice was performed in a separate study at Axis Biosciences, with tissue and plasma extracted for assessments after 7 days of RXC004 dosing. Tumor was divided into two sections; one section snap frozen and the other processed by FFPE. RXC004 levels were determined in snap frozen tumor and blood samples by LC/MS-MS. Expression analysis of the indicated genes was performed on snap frozen tumor as described above. Serial FFPE tumor sections were stained with H&E, anti-Ki67 (Abcam #Ab15580) or the dual mucin stain Alcian-blue/periodic acid shift (AB-PAS) at Histologix. IHC images were quantified using HALO software and modules (Indica Labs). The AB-PAS images were analyzed with the area quantification module on tumor area. A classifier was trained to detect differentiated and nondifferentiated tumor areas in RXC004-treated tumors using the AB-PAS–stained slides. Image registration was used to assign annotations from AB-PAS images to Ki67 images. The Ki67 images were analyzed with the multiplex IHC module and number of Ki67-positive cells were determined per mm^2 of total or differentiated tumor area.

SNU-1411 xenograft [2] = experiment: as above; type: in vivo, mouse (NOD-SCID)
Procedure: as §1

SNU-1411 xenograft [3] = experiment: Xenograft pilot study; type: in vivo, mouse (NOD-SCID); conditions: SNU-1411, 1.5 mg/kg twice daily oral
Procedure: The in vivo pilot studies were performed at Axis Bioservices. HPAF-II (5 × 10^6 cells; athymic nude mice), AsPC1 (3 × 10^6 cells; athymic nude mice), and SNU-1411 (1 × 10^7 cells; NOD-SCID mice) were implanted bilaterally, subcutaneously, whereas HCT116 (3 × 10^6 cells; athymic nude mice) were implanted in a single flank. Animals were randomized into the indicated groups and treatment initiated once tumor volumes reached approximately 100–150 mm^3. Dosing was either 1.5 mg/kg twice daily RXC004 for 7–13 days then once daily for the remainder of study (up to 29 days), or 28 days 1.5 mg/kg twice daily RXC004 for HCT116. In these and all other animal studies, unless otherwise specified, RXC004 was dosed orally in 0.5% carboxymethylcellulose + 0.1% Tween-80. For AsPC1, an ascites model, end of study tumor weight (mg) was measured. A total of 12 hours after the final dose, RNA was extracted [GenElute RNA isolation kit (#RTN70, Sigma)] from snap frozen tumor for qRT-PCR expression analysis of Axin2, c-Myc, RNF43, MUC4, and MUC5AC relative to appropriate housekeepers.

In vivo pharmacokinetics [4] = conditions: beagle, dog
Procedure: (§2) In vivo pharmacokinetics: RXC004 was dosed to male Sprague Dawley rats, male CD1 mice or dog (beagle) by intravenous and oral routes. Bioanalysis of blood and plasma samples was performed by LC/MS-MS using a Waters TQS or TQMS mass spectrometer. Pharmacokinetic information was derived using WinNonlin software (Certara).

In vivo pharmacokinetics [5] = experiment: In vivo pharmacokinetics; parameters: species or system mouse (male CD1); conditions: mouse
Procedure: as §2

[6] = male, CD1, in vivo, po, 5 mg/kg p.o.

With `Cc1c(-c2ccnc(C(F)(F)F)c2)ncn1CC(=O)Nc1ccc(-c2cnccn2)cn1` [RXC004, 2-[5-methyl-4-[2-(trifluoromethyl)-4-pyridyl]imidazol-1-yl]-N-(5-pyrazin-2-yl-2-pyridyl)acetamide] the “palmitoylation of Wnt” value (Porcupine) was “inhibited palmitoylation of Wnt”, the IC50 [1] was 2 ng/mL and the “c-Myc gene expression in tumor” value (SNU-1411 xenograft [2]; 1.5 or 5 mg/kg once daily, 7 days) was “Inhibition of c-Myc gene expression in tumor”. For the same molecule, the “tumor differentiation and mucin levels (Alcian-blue/PAS)” value (SNU-1411 xenograft [2]; intermediate effects at 1.5 mg/kg once daily, stronger at 5 mg/kg once daily) was “increased tumor differentiation and increased mucin levels”, the “dose proportionality of levels in plasma and tumor” value (SNU-1411 xenograft [2]; oral 1.5 or 5 mg/kg once daily, 7 days) was “good dose proportionality” and the “Ki67-positive cells in tumor” value (SNU-1411 xenograft [2]; total tumor area, more significantly in differentiated tumor) was “Ki67-positive cells were reduced”. For the same molecule, the “Wnt-responsive gene expression in tumor including c-Myc” value (SNU-1411 xenograft [3]) was “inhibition of Wnt-responsive gene expression”, the tumor growth (SNU-1411 xenograft [3]) was “reduction in tumor growth” and the half-life (In vivo pharmacokinetics [4]; dose i.v./p.o. 2/5 mg/kg, read-out: T½ (converted)) was 0.8 h. It also gave a clearance (In vivo pharmacokinetics [4]; intravenous, 2 mg/kg, dose i.v./p.o. 2/5 mg/kg) of 8.9 mL/min/kg, a Vd (In vivo pharmacokinetics [4]; intravenous, 2 mg/kg, dose i.v./p.o. 2/5 mg/kg, read-out: Vss) of 0.39 L/kg and an AUC(0-inf) (In vivo pharmacokinetics [4]; po, 5 mg/kg p.o.) of 8.6 µM·h. The Cmax (In vivo pharmacokinetics [4]; po, 5 mg/kg p.o.) was 10.4 µM, the concentration at 24 h (In vivo pharmacokinetics [4]; po, 5 mg/kg p.o., read-out: C24h (p.o.)) was 0.012 µM and the clearance (In vivo pharmacokinetics [5]; male, CD1, in vivo, intravenous, 2 mg/kg, dose i.v./p.o. 2/5 mg/kg) was 2.9 mL/min/kg. The Vd (In vivo pharmacokinetics [5]; male, CD1, in vivo, intravenous, 2 mg/kg, dose i.v./p.o. 2/5 mg/kg, read-out: Vss) was 0.4 L/kg, the AUC(0-inf) (In vivo pharmacokinetics [5]; [6]) was 33.9 µM·h and the Cmax (In vivo pharmacokinetics [5]; [6]) was 7.6 µM. For the same molecule, the concentration at 24 h (In vivo pharmacokinetics [5]; male, CD1, in vivo, po, 5 mg/kg p.o., read-out: C24h (p.o.)) was 0.002 µM, the half-life (In vivo pharmacokinetics [5]; male, CD1, in vivo, dose i.v./p.o. 2/5 mg/kg, read-out: T½ (converted)) was 1.8 h and the “F (p.o.)” value (In vivo pharmacokinetics [5]; dose i.v./p.o. 2/5 mg/kg) was 48%.
